Test system: mosquito sodium channel (AaNav1-1)
Experiment: Two-electrode voltage clamp of sodium channels expressed in Xenopus oocytes
Format: cell-based, Aedes aegypti
Details: 20 ms step-depolarization before and after exposure; FIG. 4J
Text: FIG. 4A-4J illustrate that pyrethrin-induced repellency is synergized by (E)-β-farnesene via activation of both AaOr31 and sodium channels. […] FIG. 4B graphically illustrates repellency elicited by pyrethrin I (P-I) and pyrethrin II (P-II) at 10^−3 dilution in Orlando (wild-type) and orco^−/− mosquitoes (n=9 cages for Orlando control from 2 batches of mosquitoes; n=10 cages for orco−/− control from 2 batches of mosquitoes, P-I: U=31, n=11 cages for Orlando; and n=12 cages for orco−/− from 3 batches of mosquitoes, P-II: U=15; n=14 cages for Orlando; and n=15 cages for orco−/− from 4 batches of mosquitoes). […] The effect of pyrethrum was measured 10 minutes after its application. Pyrethrum-induced tail currents were recorded during a 100-pulse train of 5 milliseconds step depolarizations from −120 to −10 mV with 5 milliseconds inter-pulse intervals (Du et al. (2013)). The percentage of pyrethrum-modified channels was calculated using the following equation: M=[Itail/(Eh−ENa)]/[INa/(Et−ENa)]×100; where Itail is the maximal tail current amplitude, Eh is the potential to which the membrane is repolarized, ENa is the reversal potential for sodium currents determined from the current-voltage curve, INa is the amplitude of the peak current during depolarization before pyrethrum exposure, and Et is the potential of the step depolarization. […]

SMILES: CC1(C)C2CCC1(C)C(O)C2 (single isomer, unassigned; (-)) [(−)-borneol]
- effect on peak current and channel gating: no effects

Source: patent US20210392882A1, “METHODS AND COMPOSITIONS FOR IMPROVED INSECT REPELLENCY” (Board of Trustees of Michigan State University, priority 2020, published 2021)
